Experimental findings from PMC12921516 (ACS Bio & Med Chem Au, 2025) are described below.

Assay [1] deals with T1, hPTP1B1–400 (Homo sapiens, UniProt P18031).
T1 construct: h PTP1B 1–400 IC 50 (μM ± S.D); made in house
T1 sequence (P18031 1-400): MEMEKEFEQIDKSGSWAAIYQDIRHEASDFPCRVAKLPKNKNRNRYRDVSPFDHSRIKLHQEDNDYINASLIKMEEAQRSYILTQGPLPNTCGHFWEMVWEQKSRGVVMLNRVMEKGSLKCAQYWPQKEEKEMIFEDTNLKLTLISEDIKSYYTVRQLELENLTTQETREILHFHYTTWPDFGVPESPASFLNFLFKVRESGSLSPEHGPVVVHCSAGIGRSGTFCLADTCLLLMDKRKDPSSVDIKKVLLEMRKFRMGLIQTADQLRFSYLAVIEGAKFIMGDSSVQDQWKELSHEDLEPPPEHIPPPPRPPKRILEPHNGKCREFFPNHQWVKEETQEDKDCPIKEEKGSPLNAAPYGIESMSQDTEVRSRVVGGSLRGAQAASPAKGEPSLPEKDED
The assay is described as follows: PTP1B inhibition, pNPP hydrolysis, long form. It is filed as biochemical. Conditions: pNPP substrate, 15 min 37 °C, pH 6.8; ± S.D. The procedure:
The inhibitory activity of PTP1B was assessed using the long form of the PTP1B enzyme (hPTP1B1–400). This enzyme comprises a highly conserved N-terminal catalytic domain, known as the PTP domain (PTP1B1–300), in addition to an intrinsically disordered regulatory domain (PTP1B301–400).
The IC50 values obtained from these tests are detailed in Table .
Aliquots of 0–10 μL of the test compounds (triplicate) were taken and incubated for 15 min at 37 °C with 85 μL of Tris buffer solution (50 mM, pH 6.8) containing PTP1B enzyme and 5 μL of p-nitrophenyl phosphate substrate (pNPP, 10 mM). The absorbance of the hydrolysis product, p-nitrophenol (pNP), was measured at 405 nm using a 96-microplate absorbance reader (Accuris SmartReader 96). The inhibitory activity was determined according to eq . %enzyme=(A405b/A405c)×100 1 Where: % enzyme is the percentage of inhibition for PTP1B or TCPTP
The IC50 was calculated using regression analysis, eq : %inhibition=A100/1+(I/IC50)^s 2 Where: A100: Maximum inhibition

Assay [2] concerns the target T1, hPTP1B1–400. The assay is described as follows: Enzymatic kinetics studies (Lineweaver–Burk, model fitting). It counts as biochemical. Conditions: for inhibition type: hPTP1B1–400, best fit model; for Ki: hPTP1B1–400, pNPP 0.1–0.5 mM; for Km / Vmax: hPTP1B1–400 with inhibitor. How it is done: Kinetic analyses were conducted using varying concentrations of substrate and inhibitor.
Five increasing concentrations of each inhibitor were tested, according to their previously determined IC50 values. The negative control was prepared by omitting the inhibitor in the presence of the enzyme and substrate. The Supporting Information includes detailed eqs (E1–E5) used to determine the kinetic parameters and mechanisms involved in PTP1B inhibition.
Equation 1 was used to obtain enzyme kinetic parameters by fitting data to the Michaelis-Menten model (Origin Pro
The equations defined for the following non-linear inhibition models were used to determine the mechanism of
PTP1B inhibition: competitive (E2), non-competitive (E3), uncompetitive (E4), and mixed (E5) (Origin Pro 2018 (64
(1+ ( ))(x05nh ) + (1+ ( )) (x05 nh)
Vmax is the maximum velocity, x is the substrate concentration, i is the inhibitor concentration, nh is the number of
Hill. Ki is the inhibition constant, and Km is the Michaelis constant.

Assay [3] deals with STZ-induced diabetic CD-1 mice. The assay is described as follows: Insulin tolerance test (ITT). It is filed as in vivo. Conditions: single intragastric dose 50 mg/kg, insulin 0.75 IU after 30 min. How it is done:
The studies were carried out on compounds 4b, 4g, and 5g using both normoglycemic CD1 mice and a mouse model of noninsulin-dependent diabetes mellitus (NIDDM). An oral glucose tolerance test (OGTT) was conducted on the normoglycemic mice to evaluate the hypoglycemic activity of the compounds, while an insulin tolerance test (ITT) was performed on hyperglycemic CD1 mice to assess the compounds' capacity to enhance insulin sensitivity in streptozotocin-induced diabetic mice. Pioglitazone and GA were included as positive controls. […] Healthy six-week-old male CD-1 mice, weighing between 30 and 40 g, were maintained at a temperature of 25 ± 2 °C, under a 12-h light/dark cycle and 45-65% humidity throughout the experimental period. The mice were provided with a rodent pelleted diet (Harlan Laboratories, Indianapolis, USA) and had access to water ad libitum. Sixteen hours before the experiment, all mice were fasted but still had free access to water. All animal procedures were conducted in accordance with the Mexican Federal Regulations for Animal Experimentation and Care (SAGARPA, NOM-062-ZOO-1999, Mexico) and received approval from the Institutional Animal Care and Use Committee, following guidelines outlined in the US National Institutes of Health publication (No. 85-23, revised 1985). Streptozotocin (STZ) was dissolved in citrate buffer (pH 4.5), while nicotinamide was dissolved in a normal physiological saline solution. The noninsulin-dependent diabetes (NIDD) mouse model was induced in overnight-fasted mice through a single intraperitoneal injection of STZ (100 mg/kg). Nicotinamide was administered 15 min prior, at a dose of 20 mg/kg via intraperitoneal injection. […] Roche). […] Animals were categorized into five groups, each consisting of four mice (n = 4). The experimental groups received an oral suspension of compounds 4b, 4g, and 5g, prepared in a 10% Tween 20/water solution, at a dosage of 50 mg/kg body weight. A control group was treated with only the 10% Tween 20 solution. The final group was administered pioglitazone at a dose of 45 mg/kg, which is recognized as a reference drug for insulin sensitization. To evaluate glucose levels, blood samples were collected from the tails of the mice at 0, 30, 60, 90, and 120 min after the administration of the vehicle, test compound, or drug. Blood glucose concentration was measured using a commercial glucometer (Accu-Chek, Performa; Roche) and the enzymatic glucose dehydrogenase method. The percentage variation in glycemia was calculated by comparing the selected postadministration glycemia (G x ) with the initial value (G0) using the following formula: %[…]=[(Gx-G0)/G0]×100 where G0 represents the initial glycemia values and Gx indicates the glycemia values at +30, + 60, + 90, and +120 min, respectively. To evaluate the ability of GA derivatives to enhance insulin sensitivity in STZ-induced diabetic CD-1 mice, compounds 4b, 4g, and 5g were tested. Glycyrrhetinic acid (GA) and Pioglitazone served as positive controls. The GA derivatives and the positive controls were administered to the diabetic animals, followed by the administration of human rapid-acting insulin (0.75 IU) after 30 min. Subsequently, glucose levels were measured every 15 min.

For `CC1(C)c2c(cnn2-c2ccc(SC(F)(F)F)cc2)C[C@]2(C)[C@H]3C(=O)C=C4[C@@H]5C[C@@](C)(C(=O)O)CC[C@]5(C)CC[C@@]4(C)[C@]3(C)CC[C@@H]12` [compound 5c, (20β)-11-Oxo-2′-[4-(trifluoromethylthio)phenyl]-2′H-oleana-2,12-dieno[3,2-c]pyrazol-29-oic Acid], the IC50 in assay [1] stood at 2.08 ± 0.04 µM.

Regarding `CC1(C)c2[nH]c3ccc(OC(F)(F)F)cc3c2C[C@]2(C)[C@H]3C(=O)C=C4[C@@H]5C[C@@](C)(C(=O)O)CC[C@]5(C)CC[C@@]4(C)[C@]3(C)CC[C@@H]12` [compound 4a, (20β)-5′-(Trifluoromethoxy)-11-oxo-1′H-oleana-2,12-dieno[3,2-b]indol-29-oic Acid], in assay [2], the inhibition type entry is on record as “uncompetitive”, affinity was put at a Ki of 0.74 ± 0.1 µM, the Km is 1840 ± 190 µM and the Vmax stood at 1.06 ± 0.24 mM/min. Moreover, the concentration for half-maximal inhibition (IC50) in assay [1] is 2.13 ± 0.13 µM. As to `CC1(C)c2c(cnn2-c2ccc(OC(F)(F)F)cc2)C[C@]2(C)[C@H]3C(=O)C=C4[C@@H]5C[C@@](C)(C(=O)O)CC[C@]5(C)CC[C@@]4(C)[C@]3(C)CC[C@@H]12` [compound 5a, (20β)-11-Oxo-2′-[4-(trifluoromethoxy)phenyl]-2′H-oleana-2,12-dieno[3,2-c]pyrazol-29-oic acid], in assay [1], the IC50 came to 2.29 ± 0.15 µM.

Regarding `CC1(C)[C@@H](O)CC[C@]2(C)[C@H]3C(=O)C=C4[C@@H]5C[C@@](C)(C(=O)O)CC[C@]5(C)CC[C@@]4(C)[C@]3(C)CC[C@@H]12` [GA, Glycyrrhetinic acid, reference compound], the “glycemia variation in ITT” value in assay [3] is listed as “markedly decrease glycemia variation”.

In assay [1], `CC1(C)c2c(cnn2-c2ccc(C(N)=O)cc2)C[C@]2(C)[C@H]3C(=O)C=C4[C@@H]5C[C@@](C)(C(=O)O)CC[C@]5(C)CC[C@@]4(C)[C@]3(C)CC[C@@H]12` [compound 5f, (20β)-2′-(4-Carbamoylphenyl)-11-oxo-2′H-oleana-2,12-dieno[3,2-c]pyrazol-29-oic Acid] came in with an IC50 of 10.3 ± 0.51 µM. Still for that read-out and setting: the result for `CC1(C)c2[nH]c3ccc(C#N)cc3c2C[C@]2(C)[C@H]3C(=O)C=C4[C@@H]5C[C@@](C)(C(=O)O)CC[C@]5(C)CC[C@@]4(C)[C@]3(C)CC[C@@H]12` [compound 4d, (20β)-5′-Cyano-11-oxo-1′H-oleana-2,12-dieno[3,2-b]indol-29-oic Acid] reads 22.4 ± 0.53 µM; that for `CC1(C)c2[nH]c3ccc(C(N)=O)cc3c2C[C@]2(C)[C@H]3C(=O)C=C4[C@@H]5C[C@@](C)(C(=O)O)CC[C@]5(C)CC[C@@]4(C)[C@]3(C)CC[C@@H]12` [compound 4f, (20β)-5′-Carbamoyl-11-oxo-1′H-oleana-2,12-dieno[3,2-b]indol-29-oic Acid], 9.3 ± 0.25 µM. As to `CC1(C)c2[nH]c3ccc(C(=O)O)cc3c2C[C@]2(C)[C@H]3C(=O)C=C4[C@@H]5C[C@@](C)(C(=O)O)CC[C@]5(C)CC[C@@]4(C)[C@]3(C)CC[C@@H]12` [compound 4e, (20β)-5′-Carboxy-11-oxo-1′H-oleana-2,12-dieno[3,2-b]indol-29-oic Acid], in assay [2], the inhibition type entry is given as “uncompetitive”, the inhibitory constant (Ki) amounted to 4.05 ± 0.67 µM, the Km came out at 990 ± 190 µM and the Vmax is 1.64 ± 0.23 mM/min. The IC50 in assay [1] worked out at 4.33 ± 0.58 µM.

Regarding `CC1(C)c2c(cnn2-c2ccc(C#N)cc2)C[C@]2(C)[C@H]3C(=O)C=C4[C@@H]5C[C@@](C)(C(=O)O)CC[C@]5(C)CC[C@@]4(C)[C@]3(C)CC[C@@H]12` [compound 5d, (20β)-2′-(4-Cyanophenyl)-11-oxo-2′H-oleana-2,12-dieno[3,2-c]pyrazol-29-oic Acid], the IC50 in assay [1] was found to be 6.83 ± 0.17 µM. In the case of `CC1(C)c2[nH]c3ccc(SC(F)(F)F)cc3c2C[C@]2(C)[C@H]3C(=O)C=C4[C@@H]5C[C@@](C)(C(=O)O)CC[C@]5(C)CC[C@@]4(C)[C@]3(C)CC[C@@H]12` [compound 4c, (20β)-5′-(Trifluormethylthio)-11-oxo-1′H-oleana-2,12-dieno[3,2-b]indol-29-oic Acid], the half-inhibitory concentration (IC50) in assay [1] worked out at 5.6 ± 0.12 µM.

In assay [1], `CC1(C)c2c(cnn2-c2ccc(OC(F)F)cc2)C[C@]2(C)[C@H]3C(=O)C=C4[C@@H]5C[C@@](C)(C(=O)O)CC[C@]5(C)CC[C@@]4(C)[C@]3(C)CC[C@@H]12` [compound 5b, (20β)-2′-[4-(Difluoromethoxy)phenyl]-11-Oxo-2′H-oleana-2,12-dieno[3,2-c]pyrazol-29-oic Acid] registered an IC50 of 6.19 ± 0.58 µM.

In general, IC50 refers to the midpoint of a concentration-inhibition curve. Lower therefore signals greater potency in that assay. A word on the Ki: it is the dissociation constant of the complex between target and ligand, obtained from inhibition or displacement. High values mean weaker binding, low ones tighter binding. By Km is commonly meant the concentration of substrate that gives half-maximal velocity. One may read the Vmax as the top rate of the reaction or transport when substrate is in excess.
